Measurements reported in ChEMBL document CHEMBL1201862, “PubChem BioAssay data set” (2004).
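Compound exposure: 48 hours, 5 concentrations, 96-well plates. GI50 marks 50% less growth.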 The source made the active and inactive calls. Cut-off read from the data, not from the text of the source: active = GI50 up to about 1.1 µM and inactive = higher.

Key:
Experiment in all cases: growth of human tumour cells (NCI), 48 h
K562 = system: K562
PC-3 = system: PC-3
NCI-H460 = system: NCI-H460
UACC-257 = system: UACC-257
A549 = system: A549
COLO 205 = system: COLO 205
SR = system: SR
KM12 = system: KM12
SNB-75 = system: SNB-75
MDA-N = system: MDA-N
CCRF-CEM = system: CCRF-CEM
SK-MEL-28 = system: SK-MEL-28
SF-268 = system: SF-268
NCI-H23 = system: NCI-H23
MDA-MB-435 = system: MDA-MB-435
SF-295 = system: SF-295
HOP-62 = system: HOP-62
CAKI-1 = system: CAKI-1
HT-29 = system: HT-29
TK-10 = system: TK-10

Measured: GI50

CCCCCc1c2nc(c(CCCCC)c3ccc([nH]3)c(CCCCC)c3nc(c(CCCCC)c4ccc1[nH]4)C=C3)C=C2
inactive: K562 > 100 µM | PC-3 > 100 µM | NCI-H460 > 100 µM | UACC-257 > 100 µM | A549 > 100 µM | COLO 205 > 100 µM | SR > 100 µM | KM12 > 100 µM | SNB-75 > 100 µM | MDA-N > 100 µM | CCRF-CEM > 100 µM | SK-MEL-28 > 100 µM | SF-268 > 100 µM | NCI-H23 > 100 µM | MDA-MB-435 > 100 µM | SF-295 > 100 µM | HOP-62 > 100 µM | CAKI-1 > 100 µM | HT-29 > 100 µM | TK-10 > 100 µM

CC1=C[C@H](C[C@]2(C)c3c(c4c(C)cccc4oc3=O)O[C@@H]2C)OC1=O
inactive: K562 28 µM | PC-3 > 100 µM | NCI-H460 > 100 µM | UACC-257 > 100 µM | A549 > 100 µM | COLO 205 49.9 µM | SR 22.4 µM | KM12 > 100 µM | SNB-75 > 100 µM | MDA-N 36.6 µM | CCRF-CEM 19.3 µM | SK-MEL-28 > 10 µM | SF-268 24.4 µM | NCI-H23 65.5 µM | MDA-MB-435 41.7 µM | SF-295 > 100 µM | HOP-62 > 100 µM | CAKI-1 > 100 µM | HT-29 35.6 µM | TK-10 > 100 µM

C/C(=C1/N=C(c2ccccc2)OC1=O)c1cccs1
inactive: K562 > 100 µM | PC-3 > 100 µM | NCI-H460 > 100 µM | UACC-257 > 100 µM | A549 64.7 µM | COLO 205 > 100 µM | SR > 100 µM | KM12 > 100 µM | SNB-75 76.4 µM | MDA-N > 100 µM | CCRF-CEM > 100 µM | SK-MEL-28 > 100 µM | SF-268 > 100 µM | NCI-H23 > 100 µM | MDA-MB-435 > 100 µM | SF-295 > 100 µM | HOP-62 55 µM | CAKI-1 > 100 µM | HT-29 > 100 µM | TK-10 > 100 µM

Nn1c(-c2ccccc2)n[nH]c1=O
inactive: K562 > 10 µM | PC-3 > 100 µM | NCI-H460 > 100 µM | UACC-257 > 100 µM | A549 > 100 µM | COLO 205 > 100 µM | SR > 100 µM | KM12 > 100 µM | SNB-75 > 100 µM | MDA-N > 100 µM | CCRF-CEM > 100 µM | SK-MEL-28 > 100 µM | SF-268 > 100 µM | NCI-H23 > 100 µM | MDA-MB-435 > 100 µM | SF-295 > 100 µM | HOP-62 > 100 µM | CAKI-1 > 100 µM | HT-29 > 100 µM | TK-10 > 100 µM

O=C(C(=O)N1CCc2ccccc21)c1c[nH]c2ccccc12
inactive: K562 > 10 µM | PC-3 > 10 µM | NCI-H460 > 10 µM | UACC-257 > 10 µM | A549 > 10 µM | COLO 205 > 10 µM | SR > 10 µM | KM12 > 10 µM | SNB-75 > 10 µM | MDA-N > 10 µM | CCRF-CEM > 10 µM | SK-MEL-28 > 10 µM | SF-268 > 10 µM | NCI-H23 > 10 µM | MDA-MB-435 > 10 µM | SF-295 > 10 µM | HOP-62 > 10 µM | CAKI-1 > 10 µM | HT-29 > 10 µM | TK-10 > 10 µM
